The values that follow come from US20100004266A1, “Salt or Solvate of 5-Methyl-2(Piperazin-1-Yl)Benzenesulfonic Acid” (Mitsubishi Tanabe Pharma Corporation, priority 2006, published 2010).

A short description of data set [1]: Thermal analysis (DSC) of the crystals. The class given is physicochemical. To be noted: 25-300° C., 20° C./min, dry nitrogen gas 50 mL/min. The protocol: For thermal analysis, the measurement was performed in a dry nitrogen gas stream (50 mL/min) from 25° C. to 300° C. at a temperature rise rate of 20° C./min.
For identification of the solvate form of the present invention, a powder X-ray diffraction apparatus (manufactured by Bruker) GADDS detector system and a thermal analysis equipment (manufactured by Mettler-Toledo) DSC822e system were used. The powder X-ray diffraction pattern was measured at room temperature using CuKα as a monochromator within the 2θ angle range of 1.5-41.5°. The thermal analysis was performed in a dry nitrogen gas stream (50 mL/min) from 25° C. to 300° C. at a temperature rise rate of 20° C./min.
Using the white solids obtained in Examples 1 and 2 as sample 1 (hydrochloride salt) and sample 2 (calcium salt), respectively, the thermal analysis was performed under the following conditions.
apparatus: DSC822e manufactured by Metter-Toledo temperature rise rate: 20° C./min atmosphere: dry nitrogen gas 50 mL/min measurement temperature: 25-300° C.
Using the solid obtained in Example 3 as sample 3 (2,2,2-[…] hydrate crystal), the thermal analysis was performed under the following conditions.

Data set [2] concerns cardiomyocytes. Conditions: cited from earlier work.

Take `Cc1ccc(N2CCNCC2)c(S(=O)(=O)O)c1.OCC(F)(F)F` [Sample 3, 5-methyl-2-(piperazin-1-yl)benzenesulfonic acid 2,2,2-tetrafluoroethanolate]: in data set [1], the “crystal stability by thermal analysis” value is “stable”; the “no noticeable endothermic and exothermic peaks up to (temperature)” value was “around 80 °C”.

For the molecule `Cc1ccc(N2CCNCC2)c(S(=O)(=O)O)c1` [compound A, 5-methyl-2-(piperazin-1-yl)benzenesulfonic acid], in data set [2], the “excessive influx of calcium ions into cardiomyocytes” value was “remarkably suppresses”.

For `Cc1ccc(N2CCNCC2)c(S(=O)(=O)O)c1.Cl` [sample 1, 5-methyl-2-(piperazin-1-yl)benzenesulfonic acid hydrochloride], in data set [1], the “crystal stability by thermal analysis” value was “stable”; the “no noticeable endothermic and exothermic peaks up to (temperature)” value was 200 °C.

Consider “Calcium 5-methyl-2-(piperazin-1-yl)benzenesulfonate [sample 2]”, for which, in data set [1], the “crystal stability by thermal analysis” value is “stable”; the “no noticeable endothermic and exothermic peaks up to (temperature)” value worked out at 200 °C.
